In the first assay the target is T1, r-NAAA (Rattus norvegicus, UniProt Q5KTC7).
T1 construct: Lysosomal NAAA protein preparation was obtained by homogenizing male Sprague-Dawley rat lungs; tissue Charles River (animals); host or cells: male Sprague-Dawley rat lung, soluble lysosomal fraction
T1 sequence (Q5KTC7 34-362): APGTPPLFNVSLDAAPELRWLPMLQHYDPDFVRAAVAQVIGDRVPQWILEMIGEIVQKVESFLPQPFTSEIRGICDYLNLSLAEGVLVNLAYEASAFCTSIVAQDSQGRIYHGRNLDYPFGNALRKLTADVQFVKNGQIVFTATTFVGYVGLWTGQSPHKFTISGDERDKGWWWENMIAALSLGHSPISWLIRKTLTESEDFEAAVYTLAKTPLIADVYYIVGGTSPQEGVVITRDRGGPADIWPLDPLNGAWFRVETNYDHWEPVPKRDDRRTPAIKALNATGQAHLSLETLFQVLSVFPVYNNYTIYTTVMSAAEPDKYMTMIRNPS
Nature of the assay: UPLC/MS r-NAAA assay. Format: biochemical.
Settings: not given
As to the method: Lysosomal NAAA protein preparation was obtained by homogenizing male Sprague-Dawley rat lungs (Charles River) in 20 mM Tris-HCl buffer pH 7.4 containing 0.32M sucrose. […] Supernatants were then centrifuged at 12,000 xg for 30 min at 4° C. Pellets were then resuspended in PBS pH 7.4 and subjected to a freeze/thaw cycle at −80° C. The suspension was finally centrifuged at 105,000×g for 1 h at 4° C. The supernatant was then used in the enzymatic assay.
NAAA protein preparation was pre-incubated with various concentrations of test compounds or vehicle control in 100 mM NaH2PO4/Citrate buffer, 1% Triton-X, 3 mM DTT (pH 4.5) for 30 min at 37° C. Samples were then incubated with heptadecenoylethanolamide (50 μM, Avanti Polar Lipids) at 37° C. for 30 min. The reaction was terminated by addition of cold methanol containing heptadecanoic acid (NuCheck Prep) as internal standard. Samples were then analyzed by UPLC/MS (Acquity, Waters). […] The column temperature was 40° C. Electrospray ionization was in the negative mode, capillary voltage was 0.5 kV, cone voltage was […], desolvation temperature was 500° C. N2 was used as drying gas at a flow rate of 1000 L/hour and a temperature of 500° C. […] Calibration curves were generated using commercial heptadecenoic acid (NuCheck Prep) Inhibition of NAAA activity was calculated as reduction of heptadecenoic acid in the samples compared to vehicle controls. IC50 values were calculated by non-linear regression analysis of log [concentration]/inhibition curves using GraphPad Prism 5 (GraphPad Software Inc., CA—USA) applying a standard slope curve fitting.
Molecule `CCc1ccc(CCCCOC(=O)N[C@H]2CNC2=O)cc1` [Example 39, 4-(4-Ethylphenyl)-butyl-N-[(3S)-2-oxoazetidin-3-yl]-carbamate] showed a half-maximal inhibitory concentration (IC50) of 1 µM.

`O=C(N[C@H]1CNC1=O)OCCCCCc1ccccc1` [Example 3, 5-Phenylpentyl-N-[(3S)-2-oxoazetidin-3-yl]-carbamate] showed an IC50 of 0.62 µM.

The molecule `O=C(N[C@H]1CNC1=O)OCCOCC1CCCCC1` [Example 49, 2-(Cyclohexylmethoxy)-ethyl-N-[(3S)-2-oxoazetidin-3-yl]-carbamate] yielded an IC50 of 1.65 µM.

With `O=C(N[C@@H]1CNC1=O)OCCCCCc1ccccc1` [Example 4, 5-Phenylpentyl-N-[(3R)-2-oxoazetidin-3-yl]-carbamate], the midpoint of inhibition, the IC50, lay at 18.7 µM.

With `Cc1ccccc1-c1ccc(COC(=O)N[C@H]2CNC2=O)cc1` [Example 40, [4-(o-Tolyl)-phenyl]-methyl-N-[(3S)-2-oxoazetidin-3-yl]-carbamate], inhibition was half-maximal at 0.51 µM (IC50).

`C[C@@H]1NC(=O)[C@H]1NC(=O)OCCCCCc1ccccc1` [Example 75, 5-Phenylpentyl-N-[(2S,3S)-2-methyl-4-oxo-azetidin-3-yl]-carbamate]: the IC50 turned out to be 2.8 µM.

`O=C(N[C@H]1CNC1=O)OCc1cccc(Cc2ccccc2)c1` [Example 32, (3-Benzylphenyl)-methyl-N-[(3S)-2-oxoazetidin-3-yl]-carbamate] came in with an IC50 of 1.2 µM.

On to `Cc1ccccc1-c1ccc(COC(=O)N[C@H]2CNC2=O)cc1C` [Example 41, [3-Methyl-4-(o-tolyl)-phenyl]-methyl-N-[(3S)-2-oxoazetidin-3-yl]-carbamate], for which half-maximal inhibition (IC50) was put at 0.91 µM.

`O=C(N[C@H]1CNC1=O)OC1CCC(=Cc2ccccc2)CC1` (stereo partly drawn) [Example 8, (R,E) and (S,Z)-(4-Benzylidenecyclohexyl)-N-[(3S)-2-oxoazetidin-3-yl]-carbamate] returned an IC50 of 5.7 µM.

Take `O=C(N[C@H]1CNC1=O)OCCc1ccc(-c2ccccc2)cc1` [Example 36, 2-(4-Phenylphenyl)-ethyl-N-[(3S)-2-oxoazetidin-3-yl]-carbamate]: the IC50 is 5.05 µM.

The molecule `CCCCCCCOC(=O)N[C@@H]1CNC1=O` [Example 2, Heptyl-N-[(3R)-2-oxoazetidin-3-yl]-carbamate] displayed an IC50 of 66 µM.

Consider `O=C(N[C@H]1CNC1=O)OCc1ccc(OC2CCCCC2)cc1` [Example 64, [4-(Cyclohexoxy)-phenyl]-methyl-N-[(3S)-2-oxoazetidin-3-yl]-carbamate], for which the IC50 was determined as 0.16 µM.

The molecule `CCCCCCCCOC(=O)N[C@H]1CNC1=O` [Example 24, Octyl-N-[(3S)-2-oxoazetidin-3-yl]-carbamate] showed an IC50 of 0.016 µM.

The molecule `O=C(N[C@H]1CNC1=O)OCCCCC1CCOCC1` [Example 48, 4-Tetrahydropyran-4-yl-butyl-N-[(3S)-2-oxoazetidin-3-yl]-carbamate] displayed an IC50 of 12.6 µM.

`O=C(N[C@H]1CNC1=O)OCCCCCC1CCCCC1` [Example 19, 5-Cyclohexylpentyl-N-[(3S)-2-oxoazetidin-3-yl]-carbamate]: the IC50 worked out at 0.058 µM.

Take `O=C(N[C@H]1CNC1=O)OCCCCC1CCCC1` [Example 20, 4-Cyclopentylbutyl-N-[(3S)-2-oxoazetidin-3-yl]-carbamate]: the IC50 was found to be 0.048 µM.

`CC(CCCCc1ccccc1)OC(=O)N[C@H]1CNC1=O` (mixture of isomers) [Example 15, [(1S)- and (1R)-(1-Methyl-5-phenyl-pentyl)]-N-[(3S)-2-oxoazetidin-3-yl]-carbamate] registered an IC50 of 3.9 µM.

With `Cc1cccc(-c2ccc(COC(=O)N[C@H]3CNC3=O)cc2C)c1` [Example 42, [3-Methyl-4-(m-tolyl)-phenyl]-methyl-N-[(3S)-2-oxoazetidin-3-yl]-carbamate], inhibition was half-maximal at 0.62 µM (IC50).

As for `Cc1ccccc1CCCCOC(=O)N[C@H]1CNC1=O` [Example 29, 4-(o-Tolyl)-butyl-N-[(3S)-2-oxoazetidin-3-yl]-carbamate], the midpoint of inhibition, the IC50, lay at 2 µM.

With `O=C(N[C@H]1CNC1=O)OCCCC1CCCCC1` [Example 18, 3-Cyclohexylpropyl-N-[(3S)-2-oxoazetidin-3-yl]-carbamate], inhibition was half-maximal at 0.04 µM (IC50).

On to `O=C(N[C@H]1CNC1=O)OC1CCC(Cc2ccccc2)CC1` (mixture of isomers) [Example 7, (1s,4R) and (1r,4S)-(4-Benzylcyclohexyl)-N-[(3S)-2-oxoazetidin-3-yl]-carbamate], for which the IC50 is 6.6 µM.

`CCCCCCOC(=O)N[C@H]1CNC1=O` [Example 23, Hexyl-N-[(3S)-2-oxoazetidin-3-yl]-carbamate] came in with an IC50 of 1.6 µM.

With `O=C(N[C@H]1CNC1=O)Oc1ccc(Cc2ccccc2)cc1` [Example 33, (4-Benzylphenyl)-N-[(3S)-2-oxoazetidin-3-yl]-carbamate], the IC50 was found to be 21 µM.

On to `C[C@H]1NC(=O)[C@@H]1NC(=O)OCc1ccc(C2CCCCC2)cc1` [Example 82, (4-Cyclohexylphenyl)-methyl-N-[(2R,3R)-2-methyl-4-oxo-azetidin-3-yl]-carbamate], for which the IC50 was determined as 5.1 µM.

`O=C(N[C@H]1CNC1=O)OCCOCCC1CCCCC1` [Example 51, 2-(2-Cyclohexylethoxy)-ethyl-N-[(3S)-2-oxoazetidin-3-yl]-carbamate] gave an IC50 of 0.77 µM.

For `O=C(N[C@H]1CNC1=O)OCc1ccc(C2CCCC2)cc1` [Example 55, (4-Cyclopentylphenyl)-methyl-N-[(3S)-2-oxoazetidin-3-yl]-carbamate], the 50% inhibitory concentration (IC50) stood at 0.031 µM.

In the case of `Cc1cccc(C)c1CCCCOC(=O)N[C@H]1CNC1=O` [Example 14, 4-(2,6-Dimethylphenyl)-butyl-N-[(3S)-2-oxoazetidin-3-yl]-carbamate], it took 8.1 µM to reach half-maximal inhibition (IC50).

`O=C(N[C@H]1CNC1=O)OCCCCc1ccc(C(F)(F)F)cc1` [Example 38, 4-[4-(Trifluoromethyl)-phenyl]-butyl-N-[(3S)-2-oxoazetidin-3-yl]-carbamate]: the IC50 is 0.67 µM.

The molecule `O=C(N[C@H]1CNC1=O)OCC/C=C/c1ccccc1` [Example 11, [(E)-4-Phenylbut-3-enyl]-N-[(3S)-2-oxoazetidin-3-yl]-carbamate] gave a 50% inhibitory concentration (IC50) of 6.62 µM.

The molecule `O=C(N[C@H]1CNC1=O)OCC/C=C\c1ccccc1` [Example 12, [(Z)-4-Phenylbut-3-enyl]-N-[(3S)-2-oxoazetidin-3-yl]-carbamate] displayed a concentration for half-maximal inhibition (IC50) of 1.6 µM.

The same assay, now with this note: @ 30 μM; read-out: r-NAAA UPLC/MS assay % inhib.
On to `C#CCCOC(=O)N[C@H]1CNC1=O` [Example 65, But-3-ynyl-N-[(3S)-2-oxoazetidin-3-yl]-carbamate], for which the inhibition at 30 µM was found to be 20%.

Still in this assay, the particulars now being: @100 μM.
For `O=C(N[C@H]1CNC1=O)OCc1ccccc1C1CCCCC1` [Example 35, (2-Cyclohexylphenyl)-methyl-N-[(3S)-2-oxoazetidin-3-yl]-carbamate], the “r-NAAA UPLC/MS assay (n.a.)” value is reported as “n.a. (n.a. = <10% inhib. @100 μM)”.

On to `CC1(C)NC(=O)[C@H]1NC(=O)OCc1ccc(C2CCCCC2)cc1` [Example 88, (4-Cyclohexylphenyl)-methyl-N-[(3S)-2,2-dimethyl-4-oxo-azetidin-3-yl]-carbamate], for which the “r-NAAA UPLC/MS assay (n.a.)” value is reported as “n.a. (n.a. = <10% inhib. @100 μM)”.

For `O=C(N[C@H]1CNC1=O)OCCCCc1ccccn1` [Example 37, 4-(2-Pyridyl)-butyl-N-[(3S)-2-oxoazetidin-3-yl]-carbamate], the “r-NAAA UPLC/MS assay (n.a.)” value is “n.a. (n.a. = <10% inhib. @100 μM)”.

For the molecule `C[C@H]1NC(=O)[C@H]1NC(=O)OCc1ccc(-c2ccccc2)cc1` [Example 77, (4-Phenylphenyl)-methyl-N-[(2R,3S)-2-methyl-4-oxo-azetidin-3-yl]-carbamate], the “r-NAAA UPLC/MS assay (n.a.)” value is on record as “n.a. (n.a. = <10% inhib. @100 μM)”.

Consider `C[C@H]1NC(=O)[C@@H]1NC(=O)OCc1ccc(-c2ccccc2)cc1` [Example 81, (4-Phenylphenyl)-methyl-N-[(2R,3R)-2-methyl-4-oxo-azetidin-3-yl]-carbamate], for which the “r-NAAA UPLC/MS assay (n.a.)” value is “n.a. (n.a. = <10% inhib. @100 μM)”.

Take `CC1(C)NC(=O)[C@@H]1NC(=O)OCCCCC1CCCCC1` [Example 89, 4-Cyclohexylbutyl-N-[(3R)-2,2-dimethyl-4-oxo-azetidin-3-yl]-carbamate]: the “r-NAAA UPLC/MS assay (n.a.)” value is on record as “n.a. (n.a. = <10% inhib. @100 μM)”.

The assay is the same for the next values; noted with them: read-out: r-NAAA UPLC/MS assay % inhib.
As to `O=C(N[C@H]1CNC1=O)OCc1cccc(-c2ccccc2)c1` [Example 62, (3-Phenylphenyl)-methyl-N-[(3S)-2-oxoazetidin-3-yl]-carbamate], the inhibition at 30 µM is 45%.

For `O=C(N[C@H]1CNC1=O)OCc1ccc(-c2ccncc2)cc1` [Example 45, [4-(4-Pyridyl)-phenyl]-methyl-N-[(3S)-2-oxoazetidin-3-yl]-carbamate], the inhibition at 30 µM is 48%.

What is called IC50 is the concentration that gives 50% inhibition. The low end stands for greater potency, the high end for weaker potency.

(Values after patent US9828338B2, “Carbamate derivatives of lactam based N-acylethanolamine acid amidase (NAAA) inhibitors” (The Regents of the University of California, priority 2013, dated 2017).)
